The results in this text go back to patent US12440484B2, “1,3,4-oxadiazole homophthalimide derivative compounds as histone deacetylase 6 inhibitor, and the pharmaceutical composition comprising the same” (Chong Kun Dang Pharmaceutical Corp., priority 2019, dated 2025).

Test [1] deals with HDAC1 (Homo sapiens (Human), UniProt Q13547). Description: HDAC enzyme activity inhibition (in vitro), HDAC1 Fluorimetric Drug Discovery Assay Kit. In kind it is biochemical. As to conditions: samples at 100, 1000 and 10000 nM; 37° C. 60 minutes; fluorescence Ex 390, Em 460.
The target of test [2] is HDAC6 human recombinant (Homo sapiens (Human), UniProt Q9UBN7). Description: HDAC enzyme activity inhibition (in vitro), HDAC6 assay. Format: biochemical. Conditions: samples at 0.1, 1, 10, 100 and 1000 nM; 37° C. 60 minutes; fluorescence Ex 390, Em 460.
Sequence of HDAC6 human recombinant (Q9UBN7 whole entry): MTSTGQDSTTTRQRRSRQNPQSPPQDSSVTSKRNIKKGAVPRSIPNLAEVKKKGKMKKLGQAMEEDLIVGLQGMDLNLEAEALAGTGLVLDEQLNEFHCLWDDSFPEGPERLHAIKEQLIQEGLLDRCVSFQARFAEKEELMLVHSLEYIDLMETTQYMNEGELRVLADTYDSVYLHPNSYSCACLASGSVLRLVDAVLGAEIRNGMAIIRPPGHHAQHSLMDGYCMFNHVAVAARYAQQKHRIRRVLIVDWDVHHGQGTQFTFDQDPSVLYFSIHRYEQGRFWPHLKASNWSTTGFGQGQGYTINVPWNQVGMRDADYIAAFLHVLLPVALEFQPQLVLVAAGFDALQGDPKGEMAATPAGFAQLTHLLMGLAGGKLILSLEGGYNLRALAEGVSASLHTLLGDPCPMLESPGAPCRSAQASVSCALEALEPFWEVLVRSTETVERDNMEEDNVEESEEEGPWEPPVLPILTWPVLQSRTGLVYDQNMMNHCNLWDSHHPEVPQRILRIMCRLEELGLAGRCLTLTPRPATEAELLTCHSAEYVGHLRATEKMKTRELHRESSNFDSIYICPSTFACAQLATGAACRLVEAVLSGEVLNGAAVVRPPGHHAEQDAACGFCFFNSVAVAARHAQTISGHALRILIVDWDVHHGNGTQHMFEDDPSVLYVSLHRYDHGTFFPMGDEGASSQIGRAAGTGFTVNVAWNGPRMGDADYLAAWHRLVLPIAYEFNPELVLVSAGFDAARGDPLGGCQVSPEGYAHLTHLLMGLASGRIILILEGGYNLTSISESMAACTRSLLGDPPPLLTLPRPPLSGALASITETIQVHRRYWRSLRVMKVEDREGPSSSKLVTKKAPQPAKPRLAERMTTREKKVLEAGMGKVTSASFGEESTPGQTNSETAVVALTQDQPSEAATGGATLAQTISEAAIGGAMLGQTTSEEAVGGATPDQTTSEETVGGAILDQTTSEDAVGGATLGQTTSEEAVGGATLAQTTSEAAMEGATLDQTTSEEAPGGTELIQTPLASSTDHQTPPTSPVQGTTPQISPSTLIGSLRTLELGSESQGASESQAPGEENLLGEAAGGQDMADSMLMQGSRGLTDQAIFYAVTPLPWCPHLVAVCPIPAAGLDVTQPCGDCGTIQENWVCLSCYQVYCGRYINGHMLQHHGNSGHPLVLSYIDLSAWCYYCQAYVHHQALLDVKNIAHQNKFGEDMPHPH

Sequence of HDAC1 (Q13547 whole entry): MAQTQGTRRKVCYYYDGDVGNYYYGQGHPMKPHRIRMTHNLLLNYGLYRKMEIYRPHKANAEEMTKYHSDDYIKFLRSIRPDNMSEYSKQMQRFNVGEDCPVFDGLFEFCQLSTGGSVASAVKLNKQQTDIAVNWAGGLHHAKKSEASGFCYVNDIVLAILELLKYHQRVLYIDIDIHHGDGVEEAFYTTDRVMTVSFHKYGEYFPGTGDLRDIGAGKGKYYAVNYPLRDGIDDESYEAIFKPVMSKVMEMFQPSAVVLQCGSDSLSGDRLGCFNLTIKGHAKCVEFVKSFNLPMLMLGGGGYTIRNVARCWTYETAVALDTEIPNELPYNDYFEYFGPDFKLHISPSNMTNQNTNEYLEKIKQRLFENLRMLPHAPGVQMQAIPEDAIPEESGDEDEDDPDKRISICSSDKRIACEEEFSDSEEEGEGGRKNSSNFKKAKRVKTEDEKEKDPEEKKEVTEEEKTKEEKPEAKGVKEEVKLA

For the molecule `CN(C)CCCn1c(=O)n(Cc2ccc(-c3nnc(C(F)F)o3)cn2)c(=O)c2ccccc21` [Compound 19, 3-((5-(5-(difluoromethyl)-1,3,4-oxadiazole-2-yl)pyridine-2-yl)methyl)-1-(3-(dimethylamino)propyl)quinazoline-2,4(1H,3H)-dione], the IC50 is over 10000 nM in test [1] and 249 nM in test [2].

Regarding `CC1(C)C(=O)N(Cc2ccc(-c3nnc(C(F)F)o3)cn2)C(=O)c2cc(C3=CCS(=N)(=O)CC3)ccc21` (stereo not shown) [Compound 126, 2-((5-(5-(difluoromethyl)-1,3,4-oxadiazole-2-yl)pyridine-2-yl)methyl)-7-(1-imino-1-oxydo-1,2,3,6-tetrahydro-1λ^6-thiopyran-4-yl)-4,4-dimethylisoquinoline-1,3(2H,4H)-dione], the figures for the IC50 in test [1] and in test [2] were over 10000 nM and 32 nM, respectively.

`CC1(C)C(=O)N(Cc2ccc(-c3nnc(C(F)F)o3)cn2)C(=O)c2ccc(N3CCN(CC4CCCCC4)CC3)cc21` [Compound 48, 6-(4-(cyclohexylmethyl)piperazine-1-yl)-2-((5-(5-(difluoromethyl)-1,3,4-oxadiazole-2-yl)pyridine-2-yl)methyl)-4,4-dimethylisoquinoline-1,3(2H,4H)-dione]: the IC50 in test [1] was over 10000 nM; in test [2], 342 nM.

Turning to `CC1(C)C(=O)N(Cc2ccc(-c3nnc(C(F)F)o3)cn2)C(=O)c2cc(-c3cccnc3)ccc21` [Compound 111, 2-((5-(5-(difluoromethyl)-1,3,4-oxadiazole-2-yl)pyridine-2-yl)methyl)-4,4-dimethyl-7-(pyridine-3-yl)isoquinoline-1,3(2H,4H)-dione], the 50% inhibitory concentration (IC50) in test [1] is over 10000 nM; in test [2] it was 17 nM.

Regarding `CC1(C)C(=O)N(Cc2ccc(-c3nnc(C(F)F)o3)cn2)C(=O)c2ccc(-c3ccoc3)cc21` [Compound 102, 2-((5-(5-(difluoromethyl)-1,3,4-oxadiazole-2-yl)pyridine-2-yl)methyl)-6-(furan-3-yl)-4,4-dimethylisoquinoline-1,3(2H,4H)-dione], the results for the IC50 in test [1] and in test [2] were over 10000 nM and 30 nM, respectively.

Regarding `CC1(C)C(=O)N(Cc2ccc(-c3nnc(C(F)F)o3)cn2)C(=O)c2ccc(-c3ccncc3)cc21` [Compound 105, 2-((5-(5-(difluoromethyl)-1,3,4-oxadiazole-2-yl)pyridine-2-yl)methyl)-4,4-dimethyl-6-(pyridine-4-yl)isoquinoline-1,3(2H,4H)-dione], the IC50 in test [1] is over 10000 nM; in test [2] it was 10 nM.

For `CCN1CCN(c2ccc3c(c2)C(CC)(CC)C(=O)N(Cc2ccc(-c4nnc(C(F)F)o4)cn2)C3=O)CC1` [Compound 142, 2-((5-(5-(difluoromethyl)-1,3,4-oxadiazole-2-yl)pyridine-2-yl)methyl)-4,4-diethyl-6-(4-ethylpiperazine-1-yl)isoquinoline-1,3(2H,4H)-dione], the IC50 in test [1] was over 10000 nM; in test [2], 81 nM.

With `CN1CCN(c2ccc3c(c2)C(=O)N(Cc2ccc(-c4nnc(C(F)F)o4)cn2)C(=O)C3(C)C)CC1` [Compound 118, 2-((5-(5-(difluoromethyl)-1,3,4-oxadiazole-2-yl)pyridine-2-yl)methyl)-4,4-dimethyl-7-(4-methylpiperazine-1-yl)isoquinoline-1,3(2H,4H)-dione], the IC50 is over 10000 nM in test [1] and 22 nM in test [2].

On to `CC1(C)C(=O)N(Cc2ccc(-c3nnc(C(F)F)o3)cn2)C(=O)c2ccc(C3=CCN(C4COC4)CC3)cc21` [Compound 43, 2-((5-(5-(difluoromethyl)-1,3,4-oxadiazole-2-yl)pyridine-2-yl)methyl)-4,4-dimethyl-6-(1-(oxetan-3-yl)-1,2,3,6-tetrahydropyridine-4-yl)isoquinoline-1,3(2H,4H)-dione], for which the IC50 is over 10000 nM in test [1] and 38 nM in test [2].

As to `CN1CCC(c2ccc3c(c2)C(=O)N(Cc2ccc(-c4nnc(C(F)F)o4)cn2)C(=O)C3(C)C)CC1` [Compound 54, 2-((5-(5-(difluoromethyl)-1,3,4-oxadiazole-2-yl)pyridine-2-yl)methyl)-4,4-dimethyl-7-(1-methylpiperidine-4-yl)isoquinoline-1,3(2H,4H)-dione], the values for the IC50 in test [1] and in test [2] were over 10000 nM and 42 nM, respectively.

With `CC(C)N1CCC(c2ccc3c(c2)C(=O)N(Cc2ccc(-c4nnc(C(F)F)o4)cn2)C(=O)C3(C)C)CC1` [Compound 69, 2-((5-(5-(difluoromethyl)-1,3,4-oxadiazole-2-yl)pyridine-2-yl)methyl)-7-(1-isopropylpiperidine-4-yl)-4,4-dimethylisoquinoline-1,3(2H,4H)-dione], the IC50 is over 10000 nM in test [1] and 19 nM in test [2].

As to `CCN1CCC(c2ccc3c(c2)C(C)(C)C(=O)N(Cc2ccc(-c4nnc(C(F)F)o4)cn2)C3=O)CC1` [Compound 59, 2-((5-(5-(difluoromethyl)-1,3,4-oxadiazole-2-yl)pyridine-2-yl)methyl)-6-(1-ethylpiperidine-4-yl)-4,4-dimethylisoquinoline-1,3(2H,4H)-dione], the IC50 in test [1] is over 10000 nM; in test [2], 56 nM.

With `O=c1c2ccccc2n(Cc2ccc(-c3nnc(C(F)F)o3)cn2)c(=O)n1CCc1ccccc1` [Compound 77, 1-((5-(5-(difluoromethyl)-1,3,4-oxadiazole-2-yl)pyridine-2-yl)methyl)-3-phenethylquinazoline-2,4(1H,3H)-dione], the IC50 in test [1] was over 10000 nM; in test [2] it was 141 nM.

Consider `O=c1c2ccccc2n(CC2CCN(C3COC3)CC2)c(=O)n1Cc1ccc(-c2nnc(C(F)F)o2)cn1` [Compound 16, 3-((5-(5-(difluoromethyl)-1,3,4-oxadiazole-2-yl)pyridine-2-yl)methyl)-1-((1-(oxetan-3-yl)piperidine-4-yl)methyl)quinazoline-2,4(1H,3H)-dione], for which the IC50 in test [1] is over 10000 nM; in test [2] it was 257 nM.

In the case of `CN(C)C(=O)C1CCN(c2ccc3c(c2)C(C)(C)C(=O)N(Cc2ccc(-c4nnc(C(F)F)o4)cn2)C3=O)CC1` [Compound 57, 1-(2-((5-(5-(difluoromethyl)-1,3,4-oxadiazole-2-yl)pyridine-2-yl)methyl)-4,4-dimethyl-1,3-dioxo-1,2,3,4-tetrahydroisoquinoline-6-yl)-N,N-dimethylpiperidine-4-carboxamide], the IC50 in test [1] was over 10000 nM; in test [2], 32 nM.

As for `Cn1c(=O)n(Cc2ccc(-c3nnc(C(F)F)o3)cn2)c(=O)c2cc(-c3cccc(F)c3)ccc21` [Compound 90, 3-((5-(5-(difluoromethyl)-1,3,4-oxadiazole-2-yl)pyridine-2-yl)methyl)-6-(3-fluorophenyl)-1-methylquinazoline-2,4(1H,3H)-dione], the IC50 was over 10000 nM in test [1] and 41 nM in test [2].

As to `CC1(C)C(=O)N(Cc2ccc(-c3nnc(C(F)F)o3)cn2)C(=O)c2ccc(C3CCN(C4CC5(COC5)C4)CC3)cc21` [Compound 63, 6-(1-(2-oxaspiro[3.3]heptane-6-yl)piperidine-4-yl)-2-((5-(5-(difluoromethyl)-1,3,4-oxadiazole-2-yl)pyridine-2-yl)methyl)-4,4-dimethylisoquinoline-1,3(2H,4H)-dione], the results for the IC50 in test [1] and in test [2] were over 10000 nM and 33 nM, respectively.

For `CC1(C)C(=O)N(Cc2ccc(-c3nnc(C(F)F)o3)cn2)C(=O)c2ccc(N3C[C@@H]4C[C@H]3CN4S(C)(=O)=O)cc21` [Compound 58, 2-((5-(5-(difluoromethyl)-1,3,4-oxadiazole-2-yl)pyridine-2-yl)methyl)-4,4-dimethyl-6-((1S,4S)-5-(methylsulfonyl)-2,5-diazabicyclo[2.2.1]heptane-2-yl)isoquinoline-1,3(2H,4H)-dione], the IC50 in test [1] was over 10000 nM; in test [2] it was 14 nM.

On to `CC(C)(C)OC(=O)N1CCC(Cn2c(=O)n(Cc3ccc(-c4nnc(C(F)F)o4)cn3)c(=O)c3cc(F)ccc32)CC1` [Compound 72, Tert-butyl 4-((3-((5-(5-(difluoromethyl)-1,3,4-oxadiazole-2-yl)pyridine-2-yl)methyl)-6-fluoro-2,4-dioxo-3,4-dihydroquinazoline-1(2H)-yl)methyl)piperidine-1-carboxylate], for which the IC50 in test [1] was over 10000 nM; in test [2] it was 310 nM.

On to `CC1(C)C(=O)N(Cc2ccc(-c3nnc(C(F)F)o3)cn2)C(=O)c2ccc(N3CCN(CC(F)(F)C(F)(F)C(F)(F)F)CC3)cc21` [Compound 140, 2-((5-(5-(difluoromethyl)-1,3,4-oxadiazole-2-yl)pyridine-2-yl)methyl)-6-(4-(2,2,3,3,4,4,4-heptafluorobutyl)piperazine-1-yl)-4,4-dimethylisoquinoline-1,3(2H,4H)-dione], for which the values for the IC50 in test [1] and in test [2] were over 10000 nM and 535 nM, respectively.

For `CCCN1CCN(c2ccc3c(c2)C(=O)N(Cc2ccc(-c4nnc(C(F)F)o4)cn2)C(=O)C3(C)C)CC1` [Compound 130, 2-((5-(5-(difluoromethyl)-1,3,4-oxadiazole-2-yl)pyridine-2-yl)methyl)-4,4-dimethyl-7-(4-propylpiperazine-1-yl) isoquinoline-1,3(2H,4H)-dione], the half-maximal inhibitory concentration (IC50) in test [1] is over 10000 nM; in test [2], 30 nM.

On to `COCCN1CCN(c2ccc3c(c2)C(C)(C)C(=O)N(Cc2ccc(-c4nnc(C(F)F)o4)cn2)C3=O)CC1` [Compound 35, 2-((5-(5-(difluoromethyl)-1,3,4-oxadiazole-2-yl)pyridine-2-yl)methyl)-6-(4-(2-methoxyethyl)piperazine-1-yl)-4,4-dimethylisoquinoline-1,3(2H,4H)-dione], for which the IC50 in test [1] is over 10000 nM; in test [2], 26 nM.

Consider `CC(C)N1CCC(c2ccc3c(c2)C(C)(C)C(=O)N(Cc2ccc(-c4nnc(C(F)F)o4)cn2)C3=O)CC1` [Compound 60, 2-((5-(5-(difluoromethyl)-1,3,4-oxadiazole-2-yl)pyridine-2-yl)methyl)-6-(1-isopropylpiperidine-4-yl)-4,4-dimethylisoquinoline-1,3(2H,4H)-dione], for which the IC50 in test [1] is over 10000 nM; in test [2] it was 22 nM.
